Consider four compounds from patent publication EP1946778A1, “Active substance combination for the treatment of diabetes” (Laboratorios del Dr. Esteve S.A., priority 2007, dated 2008).

The structures appear in SMILES notation.

Data set [1] is described as follows: Plasma glycerol and triacylglycerol assay, female DIO Wistar rats (COMPOUND C). The data set is classed as in vivo. To be noted: 30 mg/kg po once daily for 28 days. Here is the method:
(§1) The experiment was performed on female Wistar rats (originally in the weight range 250-300g). Animals were maintained on a reverse phase light-dark cycle (lights off for 8 h from 09.30-17.30 h) during which time the room was illuminated by red light. Animals had free access to powdered high fat diet (VRF1 plus 20% lard), ground chocolate, ground peanuts and tap water at all times. The three different diets were contained in separate glass feeding jars with aluminium lids with a 3-4 cm hole cut in it to allow access to the food. Animals were housed in pairs for twelve weeks for the induction of obesity. Animals were then housed singly in polypropylene cages with wire grid floors to enable the food intake of each rat to be recorded. Polypropylene trays with cage pads were placed beneath each cage to detect any food spillage. Animals were accustomed to these new conditions (individual housing and the wire-grid floor cages) for at least 14 days before the start of the baseline readings. […]
Plasma triacylglycerol was determined by modification of a discrete assay kit (Sigma Triglyceride determination kit, Cat No. TR0100) to a 96-well format. […]
A 2.5 mg/ml triolein equivalent glycerol standard was obtained from Sigma. […] Optical density readings were then transferred to GraphPad Prism and unknown values extrapolated from a linear regression fit to the standard curve. […]

Data set [2] is described as follows: Plasma leptin assay, female DIO Wistar rats (COMPOUND C). In kind it is in vivo. To be noted: 30 mg/kg po once daily for 28 days. The protocol:
as §1
Plasma leptin concentration was determined using Assay Designs rat leptin enzyme immunometric assay kits (Cat No. 900-015) according to the manufacturer's regular protocol. […] Optical density at 450 nm was determined using a Molecular Devices VERSAmax tunable microplate reader and readings transferred to GraphPad Prism. […]

The nature of data set [3]: Carcass composition (water, fat, protein, ash), female DIO Wistar rats (COMPOUND C). The data set is classed as in vivo. To be noted: 30 mg/kg po once daily for 28 days. The protocol: (§2) The experiment was performed on female Wistar rats (originally in the weight range 250-300g). Animals were maintained on a reverse phase light-dark cycle (lights off for 8 h from 09.30-17.30 h) during which time the room was illuminated by red light. Animals had free access to powdered high fat diet (VRF1 plus 20% lard), ground chocolate, ground peanuts and tap water at all times. The three different diets were contained in separate glass feeding jars with aluminium lids with a 3-4 cm hole cut in it to allow access to the food. Animals were housed in pairs for twelve weeks for the induction of obesity. Animals were then housed singly in polypropylene cages with wire grid floors to enable the food intake of each rat to be recorded. Polypropylene trays with cage pads were placed beneath each cage to detect any food spillage. Animals were accustomed to these new conditions (individual housing and the wire-grid floor cages) for at least 14 days before the start of the baseline readings.
Approximately a week before the start of the study, animals were weighed (to the nearest 0.1 g using an electronic top-pan balance) and allocated into 2 weight-matched treatment groups, each containing 10 animals. Following a 7 day baseline run-in period, during which the animals were dosed by the appropriate route (eg orally) once a day with vehicle (1% methylcellulose; 1 ml/kg) or the test drug, ie COMPOUND C (30 mg/kg po) once daily for 28 days.
Total ether-extractable fat in the freeze-dried samples was estimated by the Soxhlet principle using a Foss Soxtec HT2 system. The protocol employed was based on the manufacturer's recommendations for meat samples, although freeze-dried samples obviated the necessity for either a fat hydrolysis step or mixing the sample with sand to ensure efficient extraction.
Samples of approximately 1 g were accurately weighed into 26 mm x 60 mm cellulose extraction thimbles which were then plugged with approximately 0.8 g cotton wool. Sample fat was extracted into pre-weighed (including a few boiling chips) standard metal extraction cups using 70 ml of petroleum ether at 40-60°C, a circulator temperature of 115°C and a cooling flow rate of 2 l/min. A boiling stage of 25 min was employed, followed by a 40 min wash stage. A 10 min drying stage sufficed to remove ether from the extraction cups.
Percentage fat in the freeze-dried sample was calculated as follows: % fat = [100 × (final cup weight-initial cup weight)]/sample weight [formula]
Percentage fat in the original sample was calculated using the % water as follows: % fat in original sample = % fat × [(100-%water)/100] [formula]
Total protein in the freeze-dried samples was estimated using the Kjeldahl principle. A micro-Kjeldahl procedure was performed using a Foss 2012 digestion block and a Foss 2200 distilling unit. The protocol used was based on the manufacturer's recommendations for meat samples.
Approximately 0.3 g of freeze-dried sample was accurately weighed into 100 ml digestion tubes (Foss UK Ltd) in racks of 12 tubes. Each rack included at least one blank tube to determine a reagent blank. To each tube was added two Kjeltabs CQ and one Antifoam S tablet followed by 10 ml of 98% sulphuric acid. Samples were digested at 420°C for 1 h to convert protein into ammonium sulphate. Once tubes had cooled, free ammonia was liberated by the addition of an excess of 40% NaOH and steam distilled into 30 ml of 4% boric acid indicator solution. Ammonia was then determined by titration against volumetric grade 0.1 M HCl using a Brand 25 ml digital burette. Nitrogen and protein content of the samples were calculated as follows: % nitrogen = [(sample titration-blank titration) × 0.1401]/sample weight(g)%protein = % nitrogen × 6.25 [formula]
Total ash in the freeze-dried samples was estimated by determining the non-combustible ash remaining after firing samples at high temperatures using a Carbolite OAF 11/1 muffle furnace. […]

Data set [4] in a line: Plasma glycerol and triacylglycerol assay, female DIO Wistar rats (COMPOUND A, COMPOUND B). The data set is classed as in vivo. As to conditions: obese female Wistar rats; for reduction of plasma concentrations of triacylglycerol / reduction of plasma glycerol levels: 30 mg/kg po once daily for 28 days, vs vehicle. The protocol:
as §2, with “250-300 g). The rats were housed in pairs in polypropylene cages with solid floors and sawdust bedding at a temperature of 21±4°C and 55±20% humidity.” for “250-300g).”, “aluminum” for “aluminium”
Approximately a week before the start of the study, animals were weighed (to the nearest 0.1 g using an electronic top-pan balance) and allocated into 3 weight-matched treatment groups, each containing 9-10 animals. Following a 7 day baseline run-in period, during which the animals were dosed by the appropriate route (eg orally) once a day with vehicle (0.5% hydroxy-propyl-methylcellulose [HPMC]; 1 ml/kg) or the test drug, ie COMPOUND A (10mg and 30 mg/kg po) and COMPOUND B (10 mg and 30 mg/kg po) once daily for 28 days.
Terminal blood samples via cardiac puncture were taken from the animals immediately after death into Sarstedt 4.5 ml lithium-heparin tubes (Cat No. 32.331). Tubes were then centrifuged at 1,500 g for 5 minutes at 4°C and the plasma removed and immediately frozen on dry ice (as 3 aliquots per sample in sealed Eppendorf tubes). Plasma samples were stored at -75°C until required for analysis. All determinations were performed on plasma samples that had been thawed only once.
Plasma triacylglycerol was determined by modification of a discrete assay kit (Sigma Triglyceride determination kit, Cat No. TR0100) to a 96-well format. The kit actually determines liberated glycerol following enzymic hydrolysis of triacylglycerol to free fatty acids and glycerol (1 mole glycerol per mole of triacylglycerol). For this reason, correction for the glycerol concentration originally present in the plasma is required. Plasma samples were, therefore, assayed in the absence (free plasma glycerol) or presence (total triacylglycerol) of lipoprotein lipase. Subtraction of free glycerol from total triacylglycerol concentration then derives the true triacylglycerol concentration.
A 2.5 mg/ml triolein equivalent glycerol standard was obtained from Sigma. The supplied Sigma mM conversion factor for this batch was 1.13 (ie 2.83 mM glycerol). A 10 mg/ml glycerol stock solution was prepared in saline and then diluted in saline to create a series of standard concentrations from 0.218 to 4.34 mM. Standards and plasma samples (undiluted) were pipetted into the 96-well plates as 10 µl additions in duplicate. Assay plates and reagents were preheated at 37°C and the reaction started by adding 200 µl of either the glycerol or total triacylglycerol reagent (reconstituted as per manufacturer's protocol) followed by incubation at 37°C for 5 minutes after which optical density at 540 nm was determined using a Molecular Devices VERSAmax tunable microplate reader. Optical density readings were then transferred to GraphPad Prism and unknown values extrapolated from a linear regression fit to the standard curve. The assay was linear up to the highest glycerol standard employed (4.34 mM). Subtraction of the glycerol concentration in the plasma samples from the total triacylglycerol concentration derived the true triacylglycerol concentration.

Data set [5] in a line: Feeding study in female DIO Wistar rats (COMPOUND A, COMPOUND B): body weight and food intake. In kind it is in vivo. To be noted: dietary-induced obese female Wistar rats; 10 mg/kg po once daily; end of the 28 day drug treatment period. Here is the method:
as §2, with “250-300 g). The rats were housed in pairs in polypropylene cages with solid floors and sawdust bedding at a temperature of 21±4°C and 55±20% humidity.” for “250-300g).”, “aluminum” for “aluminium”
Approximately a week before the start of the study, animals were weighed (to the nearest 0.1 g using an electronic top-pan balance) and allocated into 3 weight-matched treatment groups, each containing 9-10 animals. […]
Food intake and body weight were measured once daily. […]

Data set [6] is described as follows: Plasma leptin assay, female DIO Wistar rats (COMPOUND A, COMPOUND B). In kind it is in vivo. To be noted: obese female Wistar rats. Here is the method:
as §1, with “250-300 g). The rats were housed in pairs in polypropylene cages with solid floors and sawdust bedding at a temperature of 21±4°C and 55±20% humidity.” for “250-300g).”, “aluminum” for “aluminium”, “Polypropylene trays with cage pads were placed beneath each cage to detect any food spillage.” left out
Plasma leptin concentration was determined using Assay Designs rat leptin enzyme immunometric assay kits (Cat No. 900-015) according to the manufacturer's regular protocol. […]
Optical density at 450 nm was determined using a Molecular Devices VERSAmax tunable microplate reader and readings transferred to GraphPad Prism. […]

Data set [7] can be described thus: Plasma NEFA assay, female DIO Wistar rats (COMPOUND A, COMPOUND B). In kind it is in vivo. To be noted: obese female Wistar rats; 30 mg/kg po once daily for 28 days. The protocol:
as §1, with “250-300 g). The rats were housed in pairs in polypropylene cages with solid floors and sawdust bedding at a temperature of 21±4°C and 55±20% humidity.” for “250-300g).”, “aluminum” for “aluminium”, “Animals were housed in pairs for twelve weeks for the induction of obesity.” left out, “Polypropylene trays with cage pads were placed beneath each cage to detect any food spillage.” left out
Non-esterified (or free) fatty acids (NEFA) were determined by modification of a commercial clinical analyser assay kit (Wako NEFA C ACS-ACOD method) to a 96-well format. […] After exactly 10 minutes, 150 µl of reagent B was added and the plate incubated for a further 10 minutes after which optical density at 540 nm was determined using a Molecular Devices VERSAmax tunable microplate reader. […]

The conditions of data set [8]: olanzapine treatment of patients; literature; cited from earlier work.
Setting [9] is: 10 mg/kg po once daily for 28 days.

Consider `O=C(NN1CCCCC1)C1=NN(c2ccc(Cl)cc2Cl)C(c2ccc(Cl)cc2)C1` (racemic) [COMPOUND C, (rac)-N-piperidinyl-5-(4-chlorophenyl)-1-(2,4-dichlorophenyl)-4,5-dihydro-1H-pyrazole-3-carboxamide], for which, in data set [1], the “reduction of plasma glycerol levels compared to the vehicle-treated control group” value worked out at 23.4% and the “reduction of triacylglycerol levels compared to the vehicle-treated control group” value is listed as 37.2%. Besides, the “plasma leptin concentrations, change compared to the vehicle-treated control group” value in data set [2] is listed as -48.2%. In data set [3], the “decrease in absolute body fat compared to the vehicle-treated control group” value came out at 57.7 g, the “decrease in body fat as share of the total weight-loss observed” value was 79.3%, the “decrease in fat mass compared to the vehicle-treated control group” value is 36.9% and the “reduction of total carcass water compared to the vehicle-treated control” value is given as 11.8 g. The compound also gave a percentage ash content in data set [3] (vehicle 2.77%) of 3.26%. In data set [3] (vehicle 15.5%), this compound had a percentage protein content of 17.1%. For the same compound, in data set [3] (vehicle 31.9%), the “fat content as a percentage of carcass weight” value is listed as 24.2%. In addition, the “percentage water content of the carcasses” value in data set [3] (vehicle 49.0%) was found to be 54.3%. In addition, the “mean body fat mass” value in data set [3] (vehicle 156.3 g) stood at 98.6 g. Further, the “reduction of final carcass weight” value in data set [3] (vs vehicle (473.0 g)) is 72.8 g.
In the case of `O=C(NN1CCCCC1)C1=NN(c2ccc(Cl)cc2Cl)[C@@H](c2ccc(Cl)cc2)C1` [COMPOUND A, (R)-N-piperidinyl-5-(4-chlorophenyl)-1-(2,4-dichlorophenyl)-4,5-dihydro-1H-pyrazole-3-carboxamide], in data set [4] (setting [9]), the “plasma glycerol levels, effect vs vehicle” value is “no significant effect” and the “plasma triacylglycerol concentrations, effect vs vehicle” value is recorded as “no significant effect”. Moreover, in data set [4], the “reduction of plasma concentrations of triacylglycerol” value is on record as 42.0% and the “reduction of plasma glycerol levels” value was found to be 33.6%.
With `O=C(NN1CCCCC1)C1=NN(c2ccc(Cl)cc2Cl)[C@H](c2ccc(Cl)cc2)C1` [COMPOUND B, (S)-N-piperidinyl-5-(4-chlorophenyl)-1-(2,4-dichlorophenyl)-4,5-dihydro-1H-pyrazole-3-carboxamide], in data set [4], the “reduction of plasma concentrations of triacylglycerol” value is recorded as 52.1% and the “reduction of plasma glycerol levels” value came out at 38.9%. For the same compound, in data set [5], the “body weights lower than those of the vehicle-treated controls” value is reported as 4.0%. Also, the “decrease of plasma leptin levels compared to the vehicle-treated control group” value in data set [6] (setting [9]) is reported as 13.7%. The “decrease of plasma leptin levels compared to the vehicle-treated control group” value in data set [6] (30 mg/kg po once daily for 28 days) is given as 26.2%. Besides, in data set [7], the “decrease of plasma NEFA levels compared to the vehicle-treated control group” value turned out to be 24.4%.
Turning to `Cc1cc2c(s1)Nc1ccccc1N=C2N1CCN(C)CC1` [olanzapine], the “mean increase in body weight” value in data set [8] was ~ 5 kg.
